Activity calls are given as the source filed them. The rule behind the calls is not given here.
Experiments:
[1] = system: L5178Y; assay: Comparative inhibition of L5178Y cell growth in vitro (concentration required for 50% inhibition); type: functional, cell-based; settings: Mus musculus
[2] = system: L5178Y; assay: In vitro percent inhibition at 10 e-8 M against L5178Y cell growth after 72 hr (replicate flasks inoculated with 10 e5 cells were treated with the nucleotide); type: functional; settings: Mus musculus
[3] = target: T1, Thymidylate synthase (Lactobacillus casei) (UniProt P00469); assay: Compound was tested for its inhibition against Thymidylate synthase up to concentration of 1 mM; IA means inactive; settings: Lacticaseibacillus casei
T1 sequence (whole entry): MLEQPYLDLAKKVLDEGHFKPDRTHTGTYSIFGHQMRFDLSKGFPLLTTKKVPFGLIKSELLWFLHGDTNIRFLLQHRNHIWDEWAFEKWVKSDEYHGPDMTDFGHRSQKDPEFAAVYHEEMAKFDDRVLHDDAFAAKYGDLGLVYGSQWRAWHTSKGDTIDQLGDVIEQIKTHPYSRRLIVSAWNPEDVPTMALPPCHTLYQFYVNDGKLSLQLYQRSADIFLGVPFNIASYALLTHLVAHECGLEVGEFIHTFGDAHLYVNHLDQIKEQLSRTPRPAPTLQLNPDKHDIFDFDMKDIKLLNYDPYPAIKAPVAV

[4] = (§1) Half-life for hydrolysis to 5-fluoro-2'-deoxyuridine-5'-phosphate at 100 degree Centigrade; type: ADME
[5] = Half-life for hydrolysis to 5-fluoro-2'-deoxyuridine-5'-phosphate at […] Centigrade; type: ADME
[6] = system: L5178Y; assay: as §1; type: functional; settings: Mus musculus
[7] = Half-life for hydrolysis to 5-fluoro-2'-deoxyuridine-5'-phosphate at 65 degree Centigrade; type: ADME

With `O=c1[nH]c(=O)n([C@H]2C[C@H](O)[C@@H](COP(=O)(O)O)O2)cc1F` [5-FLUORODEOXYURIDYLATE] the IC50 [1] was 1.4 nM, the inhibition at 0.01 µM [2] was 67% and the inhibition [3] was “inactive”.
Work on `NP(N)(=O)OC[C@H]1O[C@@H](n2cc(F)c(=O)[nH]c2=O)C[C@@H]1O` yielded a half-life [4] of 3.9 h, a half-life [5] of 0.25 h and an IC50 [1] of 2 nM. For the same compound, the inhibition at 0.01 µM [2] was 45% and the inhibition [3] was “inactive”.
In the case of `O=c1[nH]c(=O)n([C@H]2C[C@H](O)[C@@H](COP(=O)(N3CCOCC3)N3CCOCC3)O2)cc1F`, the inhibition at 0.01 µM [2] is reported as 11%, the T1/2 [6] is reported as 100 h and the inhibition [3] is reported as “inactive”. It also gave a half-life [7] of 240 h.
With `O=c1[nH]c(=O)n([C@H]2C[C@H](O)[C@@H](CO)O2)cc1F` [FLOXURIDINE] the IC50 [1] was 0.76 nM and the inhibition [3] was “inactive”.

Source: ChEMBL document CHEMBL1121560, “Synthesis and biological activity of 5-fluoro-2'-deoxyuridine 5'-phosphorodiamidates” (J Med Chem, 1980)
